Values belong to the compound of their own block, whether it stands above or below them. The source made the active and inactive calls. No cut-off for these calls is given here.
Key:
D(3) dopamine receptor [1] = target: T1, D(3) dopamine receptor (Homo sapiens, UniProt P35462); assay: Rate of [3H]thymidine uptake compared to quinpirole (100%) in Dopamine receptor D3 expressing CHO cells; assay type: functional, cell-based; details: Cricetulus griseus
D(4) dopamine receptor = target: T2, D(4) dopamine receptor (Homo sapiens, UniProt P21917)
T2 sequence (P21917 whole entry): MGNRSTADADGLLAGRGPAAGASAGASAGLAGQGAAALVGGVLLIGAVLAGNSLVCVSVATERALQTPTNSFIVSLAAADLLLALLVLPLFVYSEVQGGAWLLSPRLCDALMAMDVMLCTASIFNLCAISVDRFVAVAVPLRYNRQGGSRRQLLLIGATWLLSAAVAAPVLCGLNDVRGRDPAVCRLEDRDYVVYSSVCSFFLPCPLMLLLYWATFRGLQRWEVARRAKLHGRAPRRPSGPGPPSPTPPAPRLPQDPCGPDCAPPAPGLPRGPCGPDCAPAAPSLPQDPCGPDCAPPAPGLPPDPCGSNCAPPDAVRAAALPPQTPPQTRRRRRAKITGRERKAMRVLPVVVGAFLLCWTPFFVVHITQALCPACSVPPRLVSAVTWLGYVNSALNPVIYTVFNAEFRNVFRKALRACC
Description: Binding affinity for human Dopamine receptor D4 by [3H]- spiperone displacement.

D(3) dopamine receptor [2] = target: T1, D(3) dopamine receptor
Description: Binding affinity for human Dopamine receptor D3 by [3H]- spiperone displacement.

D(3) dopamine receptor [3] = target: T1, D(3) dopamine receptor; details: Cricetulus griseus; CHO
D(2) dopamine receptor [4] = target: T3, D(2) dopamine receptor (Homo sapiens, UniProt P14416)
T3 sequence (P14416 whole entry): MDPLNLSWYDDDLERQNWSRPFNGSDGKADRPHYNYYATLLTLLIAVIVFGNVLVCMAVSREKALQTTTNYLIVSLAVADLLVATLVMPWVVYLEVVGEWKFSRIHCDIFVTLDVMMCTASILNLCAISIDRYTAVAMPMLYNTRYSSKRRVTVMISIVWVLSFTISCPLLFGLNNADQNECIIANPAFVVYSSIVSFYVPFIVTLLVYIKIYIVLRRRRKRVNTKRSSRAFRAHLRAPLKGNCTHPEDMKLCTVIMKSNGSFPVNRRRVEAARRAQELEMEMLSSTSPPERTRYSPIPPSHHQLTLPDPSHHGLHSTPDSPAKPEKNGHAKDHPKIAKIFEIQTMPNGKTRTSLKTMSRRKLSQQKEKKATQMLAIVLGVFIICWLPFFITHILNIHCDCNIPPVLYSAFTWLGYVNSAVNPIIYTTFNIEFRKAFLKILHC
Description: Binding affinity for human Dopamine receptor D2 (short) by [3H]- spiperone displacement.

D(2) dopamine receptor [5] = target: T3, D(2) dopamine receptor; remark: listed apart in the source
Description: Binding affinity for human Dopamine receptor D2 (long) by [3H]- spiperone displacement.

[6] = target: Adrenergic receptor alpha-1 (Sus scrofa); assay: […] from porcine Alpha-1 adrenergic receptor; assay type: protein assay
[7] = target: 5-HT2 receptor (Sus scrofa); assay: Binding affinity for porcine 5-hydroxytryptamine 2 receptor using [3H]- ketanserin
D(3) dopamine receptor [8] = target: T1, D(3) dopamine receptor; details: Cricetulus griseus; CHO; remark: listed apart in the source

T1 sequence (P35462 whole entry): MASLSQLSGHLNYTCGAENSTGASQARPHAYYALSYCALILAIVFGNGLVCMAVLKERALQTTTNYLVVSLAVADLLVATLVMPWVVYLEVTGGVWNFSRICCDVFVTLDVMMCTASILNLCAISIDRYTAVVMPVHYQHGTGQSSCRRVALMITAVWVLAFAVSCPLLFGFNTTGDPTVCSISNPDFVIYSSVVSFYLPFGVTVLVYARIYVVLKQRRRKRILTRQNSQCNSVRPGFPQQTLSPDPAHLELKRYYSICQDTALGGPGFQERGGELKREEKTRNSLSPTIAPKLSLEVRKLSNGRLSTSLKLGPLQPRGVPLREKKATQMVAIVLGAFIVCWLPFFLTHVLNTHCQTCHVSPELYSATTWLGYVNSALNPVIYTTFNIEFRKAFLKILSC

Effect (D(3) dopamine receptor [1]): 52%
SMILES: COc1ccccc1N1CCN(CCCCNC(=O)c2cc3ccccn3n2)CC1

SMILES: O=C(NCCCCN1CCN(c2cccc(Cl)c2Cl)CC1)c1cc2ccccc2[te]1
Ki (D(4) dopamine receptor): 150 nM | Ki (D(3) dopamine receptor [2]): 0.55 nM | NE (D(3) dopamine receptor [3]): inactive | Ki (D(2) dopamine receptor [4]): 48 nM | Ki (D(2) dopamine receptor [5]): 91 nM | Ki [6]: > 1000 nM | Ki [7]: 730 nM

Effect (D(3) dopamine receptor [8]): inactive
SMILES: O=C(NCCCCN1CCN(c2cccc(Cl)c2Cl)CC1)c1cc2ccccc2o1

SMILES: COc1ccccc1N1CCN(CCCCNC(=O)c2cc3ccccc3[te]2)CC1
NE (D(3) dopamine receptor [3]): inactive

NE (D(3) dopamine receptor [3]): inactive
SMILES: O=C(NCCCCN1CCN(c2cccc(Cl)c2Cl)CC1)c1cc2ccccc2s1
